Test system: IMR-90 fibroblasts
Assay: Sensitisation to IR-induced senescence by senescence-equivalent dose of 15d-PGJ2
Assay type: cell-based, human
Settings: 1.4 μM
From the text: Senescence was induced by irradiation with 10 Gy of ionizing radiation. Non-senescent controls (proliferating or quiescent) were placed in the irradiator for an identical period of time without turning on the irradiator. Oncogene-induced senescence was induced via lentiviral overexpression of HRAS^V12, as described previously (Wiley et al. (2016) Cell Metab. 23: 303-314).
SA-Bgal activity was detected as described previously (Dimri et al. (1995) Proc. Natl. Acad. Sci. USA, 92: 9363-9367) using a commercial kit (Biovision).
For EdU labeling, cells were cultured with EdU (10 μM) for 24 h, fixed in 4% buffered formalin for 10 min, washed in PBS, and permeabilized in 0.5% Triton X-100 for 30 min. Cells were treated as instructed by the manufacturer Life Technologies Cat #C10337). For immunofluorescence, cells were blocked in 10% normal goat serum for 30 min, washed, and incubated overnight in antibodies to Ki67 (Abcam) or cleaved caspase 3 (Cell Signaling). Cell were then washed, incubated in fluorescent secondary antibodies, and mounted using vectashield mounting medium with DAPI.

## CCCCC/C=C/C=C1/C(=O)C=C[C@@H]1C/C=C\CCCC(=O)O [15d-PGJ2]
10 Gy IR, 10 days
  SA-beta-galactosidase, EdU incorporation and cell number versus DMSO: no differences
Lower doses of IR, 10 days
  senescence versus control cells: more senescent relative to control cells
No IR
  induction of senescence: did not induce senescence on its own

— patent publication US20200371122A1, “BIOMARKER FOR SENESCENT CELLS” (Buck Institute for Research on Aging, priority 2017, published 2020)
